Source: paper PMC2634297 (Bioorganic & medicinal chemistry letters, 2008)

Assays:
PLA2g7 = PLA2g7 (Mus musculus, UniProt Q60963); assay: biochemical
BAT5 = BAT5 (Mus musculus, UniProt Q9Z1Q2); assay: biochemical
BAT5 (60 kDa hydrolase) = BAT5 (60 kDa hydrolase) (Mus musculus, UniProt Q9Z1Q2); assay type: biochemical
ABHD12 = ABHD12 (Mus musculus, UniProt Q99LR1); assay: biochemical
KIAA1363 = KIAA1363 (Mus musculus, UniProt Q8BLF1); assay: biochemical
brain serine hydrolases = assay type: biochemical, mouse
FAAH = FAAH (Mus musculus, UniProt O08914); assay: biochemical
Sequence of FAAH (O08914 whole entry): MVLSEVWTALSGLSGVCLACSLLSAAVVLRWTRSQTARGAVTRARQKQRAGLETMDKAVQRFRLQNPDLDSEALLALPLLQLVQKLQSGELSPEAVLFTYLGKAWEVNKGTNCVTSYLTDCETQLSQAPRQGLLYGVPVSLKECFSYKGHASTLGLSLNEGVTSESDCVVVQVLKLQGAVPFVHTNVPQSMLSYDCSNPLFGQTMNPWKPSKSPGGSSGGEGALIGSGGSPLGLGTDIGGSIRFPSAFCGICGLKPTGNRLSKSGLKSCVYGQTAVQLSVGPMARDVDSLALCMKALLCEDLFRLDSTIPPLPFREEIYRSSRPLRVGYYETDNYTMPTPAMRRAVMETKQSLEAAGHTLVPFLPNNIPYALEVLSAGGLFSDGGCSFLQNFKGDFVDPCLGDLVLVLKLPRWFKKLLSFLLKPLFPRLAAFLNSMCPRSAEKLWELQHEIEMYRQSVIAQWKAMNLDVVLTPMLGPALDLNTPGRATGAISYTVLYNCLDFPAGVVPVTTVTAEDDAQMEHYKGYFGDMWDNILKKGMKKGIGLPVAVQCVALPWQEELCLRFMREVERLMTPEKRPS

Sequence of BAT5 (Q9Z1Q2 whole entry): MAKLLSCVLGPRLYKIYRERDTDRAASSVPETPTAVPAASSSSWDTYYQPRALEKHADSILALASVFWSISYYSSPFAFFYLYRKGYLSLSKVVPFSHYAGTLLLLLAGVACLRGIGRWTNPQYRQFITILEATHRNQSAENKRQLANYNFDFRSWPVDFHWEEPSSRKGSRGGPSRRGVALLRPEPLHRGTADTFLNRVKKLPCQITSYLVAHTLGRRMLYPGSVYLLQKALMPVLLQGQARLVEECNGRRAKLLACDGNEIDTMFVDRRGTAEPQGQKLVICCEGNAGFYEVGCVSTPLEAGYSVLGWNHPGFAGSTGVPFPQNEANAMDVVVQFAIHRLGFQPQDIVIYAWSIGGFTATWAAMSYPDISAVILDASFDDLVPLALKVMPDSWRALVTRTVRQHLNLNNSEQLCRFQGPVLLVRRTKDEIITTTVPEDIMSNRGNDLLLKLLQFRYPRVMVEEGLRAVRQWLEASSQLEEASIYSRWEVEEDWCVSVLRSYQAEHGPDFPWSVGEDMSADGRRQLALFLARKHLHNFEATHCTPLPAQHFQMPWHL
Sequence of PLA2g7 (Q60963 22-440): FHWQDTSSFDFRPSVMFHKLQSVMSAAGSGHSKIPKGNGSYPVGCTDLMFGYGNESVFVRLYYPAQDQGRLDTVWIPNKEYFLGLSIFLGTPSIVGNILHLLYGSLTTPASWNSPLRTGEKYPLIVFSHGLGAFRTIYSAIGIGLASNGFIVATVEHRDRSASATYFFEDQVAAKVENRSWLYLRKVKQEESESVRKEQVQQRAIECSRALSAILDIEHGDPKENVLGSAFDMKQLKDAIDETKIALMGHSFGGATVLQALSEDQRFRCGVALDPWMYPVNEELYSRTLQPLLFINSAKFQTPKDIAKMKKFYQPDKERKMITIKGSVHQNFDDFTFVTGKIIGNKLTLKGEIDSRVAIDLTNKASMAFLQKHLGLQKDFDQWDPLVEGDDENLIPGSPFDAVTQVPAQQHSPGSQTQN
Sequence of BAT5 (60 kDa hydrolase) (Q9Z1Q2 whole entry): as the sequence (Q9Z1Q2 whole entry) above
Sequence of KIAA1363 (Q8BLF1 whole entry): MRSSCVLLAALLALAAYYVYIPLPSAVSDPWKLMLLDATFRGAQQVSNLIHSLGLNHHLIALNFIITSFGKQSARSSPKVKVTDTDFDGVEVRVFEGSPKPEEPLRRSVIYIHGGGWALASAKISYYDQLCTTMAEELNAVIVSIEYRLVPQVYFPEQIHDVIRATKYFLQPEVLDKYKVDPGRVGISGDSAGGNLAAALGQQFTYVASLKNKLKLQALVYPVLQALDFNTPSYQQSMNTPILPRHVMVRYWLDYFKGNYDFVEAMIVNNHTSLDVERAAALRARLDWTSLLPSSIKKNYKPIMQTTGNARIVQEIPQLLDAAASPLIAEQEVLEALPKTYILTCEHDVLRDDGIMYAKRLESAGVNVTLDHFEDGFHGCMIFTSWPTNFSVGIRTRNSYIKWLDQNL
Sequence of ABHD12 (Q99LR1 whole entry): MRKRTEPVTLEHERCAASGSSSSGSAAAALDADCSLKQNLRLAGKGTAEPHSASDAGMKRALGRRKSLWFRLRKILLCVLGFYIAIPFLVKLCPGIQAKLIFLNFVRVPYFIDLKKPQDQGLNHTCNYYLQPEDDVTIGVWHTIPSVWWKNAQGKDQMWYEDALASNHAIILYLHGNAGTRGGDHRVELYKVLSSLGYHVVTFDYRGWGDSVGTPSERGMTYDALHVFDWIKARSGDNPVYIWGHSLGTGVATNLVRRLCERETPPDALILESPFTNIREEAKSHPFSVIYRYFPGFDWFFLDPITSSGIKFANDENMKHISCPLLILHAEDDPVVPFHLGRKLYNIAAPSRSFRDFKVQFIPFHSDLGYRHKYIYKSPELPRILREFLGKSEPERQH

SMILES | IC50 (PLA2g7) [µM] | inhibition of recombinant PLA2g7 (in words) (PLA2g7) | IC50 (BAT5) [µM] | inhibition of recombinant BAT5 (in words) (BAT5) | sensitivity of 60 kDa hydrolase (tentatively BAT5) to inhibitor (BAT5 (60 kDa hydrolase)) | IC50 (ABHD12) [µM] | IC50 (KIAA1363) [µM] | inhibition of recombinant KIAA1363 (in words) (KIAA1363) | number of hydrolase activities whose labeling is blocked (brain serine hydrolases) | IC50 (FAAH) [µM] | inhibition of recombinant FAAH (in words) (FAAH)
CCCCCCCCCCC[C@@H](C[C@@H]1OC(=O)[C@H]1CCCCCC)OC(=O)[C@H](CC(C)C)NC=O [THL, tetrahydrolipstatin] | < 0.1 | inhibited | < 0.1 | inhibited | sensitive | < 0.1 | – | – | – | – | –
O=C(NCCCCCCNC(=O)ON=C1CCCCC1)ON=C1CCCCC1 [RHC80267] | 10 to 70 | inhibited | 10 to 70 | inhibited | sensitive | – | 10 to 70 | inhibited | three | 10 to 70 | inhibited
